# Data published in PubChem BioAssay (NCI).
#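 Dose response: 5 concentrations. Exposure: 48 h. Format: 96-well plates. Endpoint: linear interpolation; highest concentration if not reached. Definition used: TGI = concentration required for complete inhibition of growth.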
# Legend:
# Test in all cases: DTP human tumour cell line panel, 48 h
# 786-0 renal = test system: 786-0 renal
# A498 renal = test system: A498 renal
# A549 NSCLC = test system: A549 NSCLC
# ACHN renal = test system: ACHN renal
# CAKI-1 renal = test system: CAKI-1 renal
# CCRF-CEM leukemia = test system: CCRF-CEM leukemia
# COLO 205 colon = test system: COLO 205 colon
# DLD-1 colon = test system: DLD-1 colon
# DMS 114 small cell lung = test system: DMS 114 small cell lung
# DMS 273 small cell lung = test system: DMS 273 small cell lung
# EKVX NSCLC = test system: EKVX NSCLC
# HCC-2998 colon = test system: HCC-2998 colon
# HCT-116 colon = test system: HCT-116 colon
# HCT-15 colon = test system: HCT-15 colon
# HL-60(TB) leukemia = test system: HL-60(TB) leukemia
# HOP-18 NSCLC = test system: HOP-18 NSCLC
# HOP-62 NSCLC = test system: HOP-62 NSCLC
# HOP-92 NSCLC = test system: HOP-92 NSCLC
# HT29 colon = test system: HT29 colon
# IGROV1 ovarian = test system: IGROV1 ovarian
# K-562 leukemia = test system: K-562 leukemia
# KM12 colon = test system: KM12 colon
# KM20L2 colon = test system: KM20L2 colon
# LOX IMVI melanoma = test system: LOX IMVI melanoma
# LXFL 529 NSCLC = test system: LXFL 529 NSCLC
# M14 melanoma = test system: M14 melanoma
# M19-MEL melanoma = test system: M19-MEL melanoma
# MALME-3M melanoma = test system: MALME-3M melanoma
# MOLT-4 leukemia = test system: MOLT-4 leukemia
# NCI-H226 lung = test system: NCI-H226 lung
# NCI-H23 lung = test system: NCI-H23 lung
# NCI-H460 lung = test system: NCI-H460 lung
# NCI-H522 lung = test system: NCI-H522 lung
# OVCAR-3 ovarian = test system: OVCAR-3 ovarian
# OVCAR-4 ovarian = test system: OVCAR-4 ovarian
# OVCAR-5 ovarian = test system: OVCAR-5 ovarian
# OVCAR-8 ovarian = test system: OVCAR-8 ovarian
# RPMI-8226 leukemia = test system: RPMI-8226 leukemia
# SF-268 CNS = test system: SF-268 CNS
# SF-295 CNS = test system: SF-295 CNS
# SF-539 CNS = test system: SF-539 CNS
# SK-MEL-2 melanoma = test system: SK-MEL-2 melanoma
# SK-MEL-28 melanoma = test system: SK-MEL-28 melanoma
# SK-MEL-5 melanoma = test system: SK-MEL-5 melanoma
# SK-OV-3 ovarian = test system: SK-OV-3 ovarian
# SN12C renal = test system: SN12C renal
# SNB-19 CNS = test system: SNB-19 CNS
# SNB-75 CNS = test system: SNB-75 CNS
# SNB-78 CNS = test system: SNB-78 CNS
# SR leukemia = test system: SR leukemia
# SW-620 colon = test system: SW-620 colon
# TK-10 renal = test system: TK-10 renal
# U251 CNS = test system: U251 CNS
# UACC-257 melanoma = test system: UACC-257 melanoma
# UACC-62 melanoma = test system: UACC-62 melanoma
# UO-31 renal = test system: UO-31 renal
# RXF 393 renal = test system: RXF 393 renal
# XF 498 CNS = test system: XF 498 CNS
smiles,measurement,setting,value
O=C1[C@H]2ON(c3ccccc3)C(c3ccc(Cl)cc3Cl)[C@H]2C(=O)N1c1ccc(Cc2ccc(N3C(=O)[C@@H]4ON(c5ccccc5)C(c5ccc(Cl)cc5Cl)[C@@H]4C3=O)cc2)cc1 (some centres undefined),TGI,786-0 renal,> 100 µM
same,TGI,A498 renal,> 100 µM
same,TGI,A549 NSCLC,> 100 µM
same,TGI,ACHN renal,> 100 µM
same,TGI,CAKI-1 renal,> 100 µM
same,TGI,CCRF-CEM leukemia,> 100 µM
same,TGI,COLO 205 colon,> 100 µM
same,TGI,DLD-1 colon,> 100 µM
same,TGI,DMS 114 small cell lung,> 100 µM
same,TGI,DMS 273 small cell lung,> 100 µM
same,TGI,EKVX NSCLC,> 100 µM
same,TGI,HCC-2998 colon,> 100 µM
same,TGI,HCT-116 colon,> 100 µM
same,TGI,HCT-15 colon,> 100 µM
same,TGI,HL-60(TB) leukemia,> 100 µM
same,TGI,HOP-18 NSCLC,> 100 µM
same,TGI,HOP-62 NSCLC,> 100 µM
same,TGI,HOP-92 NSCLC,> 100 µM
same,TGI,HT29 colon,> 100 µM
same,TGI,IGROV1 ovarian,> 100 µM
same,TGI,K-562 leukemia,> 100 µM
same,TGI,KM12 colon,> 100 µM
same,TGI,KM20L2 colon,> 100 µM
same,TGI,LOX IMVI melanoma,> 100 µM
same,TGI,LXFL 529 NSCLC,> 100 µM
same,TGI,M14 melanoma,69 µM
same,TGI,M19-MEL melanoma,> 100 µM
same,TGI,MALME-3M melanoma,> 100 µM
same,TGI,MOLT-4 leukemia,> 100 µM
same,TGI,NCI-H226 lung,> 100 µM
same,TGI,NCI-H23 lung,> 100 µM
same,TGI,NCI-H460 lung,> 100 µM
same,TGI,NCI-H522 lung,> 100 µM
same,TGI,OVCAR-3 ovarian,> 100 µM
same,TGI,OVCAR-4 ovarian,> 100 µM
same,TGI,OVCAR-5 ovarian,> 100 µM
same,TGI,OVCAR-8 ovarian,> 100 µM
same,TGI,RPMI-8226 leukemia,> 100 µM
same,TGI,SF-268 CNS,> 100 µM
same,TGI,SF-295 CNS,> 100 µM
same,TGI,SF-539 CNS,> 100 µM
same,TGI,SK-MEL-2 melanoma,> 100 µM
same,TGI,SK-MEL-28 melanoma,> 100 µM
same,TGI,SK-MEL-5 melanoma,> 100 µM
same,TGI,SK-OV-3 ovarian,> 100 µM
same,TGI,SN12C renal,> 100 µM
same,TGI,SNB-19 CNS,> 100 µM
same,TGI,SNB-75 CNS,> 100 µM
same,TGI,SNB-78 CNS,> 100 µM
same,TGI,SR leukemia,> 100 µM
same,TGI,SW-620 colon,> 100 µM
same,TGI,TK-10 renal,> 100 µM
same,TGI,U251 CNS,> 100 µM
same,TGI,UACC-257 melanoma,> 100 µM
same,TGI,UACC-62 melanoma,> 100 µM
same,TGI,UO-31 renal,> 100 µM
COc1ccccc1-n1c(C)nc2ccccc2c1=O,TGI,786-0 renal,> 100 µM
same,TGI,A498 renal,> 100 µM
same,TGI,A549 NSCLC,> 100 µM
same,TGI,ACHN renal,> 100 µM
same,TGI,CAKI-1 renal,> 100 µM
same,TGI,CCRF-CEM leukemia,> 100 µM
same,TGI,COLO 205 colon,> 100 µM
same,TGI,DLD-1 colon,> 100 µM
same,TGI,DMS 114 small cell lung,> 100 µM
same,TGI,DMS 273 small cell lung,> 100 µM
same,TGI,EKVX NSCLC,> 100 µM
same,TGI,HCC-2998 colon,> 100 µM
same,TGI,HCT-116 colon,> 100 µM
same,TGI,HCT-15 colon,> 100 µM
same,TGI,HL-60(TB) leukemia,> 100 µM
same,TGI,HOP-18 NSCLC,> 100 µM
same,TGI,HOP-62 NSCLC,> 100 µM
same,TGI,HOP-92 NSCLC,> 100 µM
same,TGI,HT29 colon,> 100 µM
same,TGI,IGROV1 ovarian,> 100 µM
same,TGI,K-562 leukemia,> 100 µM
same,TGI,KM12 colon,> 100 µM
same,TGI,KM20L2 colon,> 100 µM
same,TGI,LOX IMVI melanoma,> 100 µM
same,TGI,LXFL 529 NSCLC,> 100 µM
same,TGI,M14 melanoma,> 100 µM
same,TGI,M19-MEL melanoma,> 100 µM
same,TGI,MALME-3M melanoma,> 100 µM
same,TGI,MOLT-4 leukemia,> 100 µM
same,TGI,NCI-H226 lung,> 100 µM
same,TGI,NCI-H23 lung,> 100 µM
same,TGI,NCI-H460 lung,> 100 µM
same,TGI,NCI-H522 lung,> 100 µM
same,TGI,OVCAR-3 ovarian,> 100 µM
same,TGI,OVCAR-4 ovarian,> 100 µM
same,TGI,OVCAR-5 ovarian,> 100 µM
same,TGI,OVCAR-8 ovarian,> 100 µM
same,TGI,RXF 393 renal,> 100 µM
same,TGI,SF-268 CNS,> 100 µM
same,TGI,SF-295 CNS,> 100 µM
same,TGI,SF-539 CNS,> 100 µM
same,TGI,SK-MEL-2 melanoma,> 100 µM
same,TGI,SK-MEL-28 melanoma,> 100 µM
same,TGI,SK-MEL-5 melanoma,> 100 µM
same,TGI,SK-OV-3 ovarian,> 100 µM
same,TGI,SN12C renal,> 100 µM
same,TGI,SNB-19 CNS,> 100 µM
same,TGI,SNB-75 CNS,> 100 µM
same,TGI,SNB-78 CNS,> 100 µM
same,TGI,SR leukemia,> 100 µM
same,TGI,SW-620 colon,> 100 µM
same,TGI,TK-10 renal,> 100 µM
same,TGI,U251 CNS,> 100 µM
same,TGI,UACC-257 melanoma,> 100 µM
same,TGI,UACC-62 melanoma,> 100 µM
same,TGI,UO-31 renal,> 100 µM
C=CCN1C2Cc3cc(OC)c(OC)cc3C1Cc1cc(OC)c(OC)cc12,TGI,786-0 renal,> 100 µM
same,TGI,A498 renal,> 100 µM
same,TGI,A549 NSCLC,> 100 µM
same,TGI,ACHN renal,> 100 µM
same,TGI,CAKI-1 renal,> 100 µM
same,TGI,CCRF-CEM leukemia,> 100 µM
same,TGI,DLD-1 colon,> 100 µM
same,TGI,EKVX NSCLC,> 100 µM
same,TGI,HCC-2998 colon,> 100 µM
same,TGI,HCT-15 colon,> 100 µM
same,TGI,HOP-62 NSCLC,> 100 µM
same,TGI,HT29 colon,> 100 µM
same,TGI,K-562 leukemia,> 100 µM
same,TGI,KM12 colon,> 100 µM
same,TGI,KM20L2 colon,> 100 µM
same,TGI,LXFL 529 NSCLC,> 100 µM
same,TGI,M14 melanoma,> 100 µM
same,TGI,MALME-3M melanoma,> 100 µM
same,TGI,MOLT-4 leukemia,> 100 µM
same,TGI,NCI-H23 lung,> 100 µM
same,TGI,NCI-H460 lung,> 100 µM
same,TGI,NCI-H522 lung,> 100 µM
same,TGI,OVCAR-3 ovarian,> 100 µM
same,TGI,OVCAR-4 ovarian,> 100 µM
same,TGI,OVCAR-5 ovarian,> 100 µM
same,TGI,OVCAR-8 ovarian,> 100 µM
same,TGI,RPMI-8226 leukemia,> 100 µM
same,TGI,SF-268 CNS,> 100 µM
same,TGI,SF-295 CNS,> 100 µM
same,TGI,SK-MEL-2 melanoma,> 100 µM
same,TGI,SK-MEL-28 melanoma,> 100 µM
same,TGI,SK-MEL-5 melanoma,> 100 µM
same,TGI,SN12C renal,> 100 µM
same,TGI,SNB-19 CNS,> 100 µM
same,TGI,SNB-75 CNS,> 100 µM
same,TGI,SNB-78 CNS,> 100 µM
same,TGI,SW-620 colon,> 100 µM
same,TGI,TK-10 renal,> 100 µM
same,TGI,U251 CNS,> 100 µM
same,TGI,UACC-257 melanoma,> 100 µM
same,TGI,UO-31 renal,> 100 µM
same,TGI,XF 498 CNS,> 100 µM
